Like-named read-outs stand apart in the source and are kept apart here.
Molecular target: BCL6 (Homo sapiens (Human), UniProt P41182)
Test: Immunofluorescence high content imaging of BCL6 degradation in T47D cells
Type: cell-based
Conditions: for DC50: class symbols A-D, read-out: EC50 (nM)*
Method in brief: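 Read-out is BCL6 immunofluorescence quantified by high-content imaging (10×, 4 fields per well) of T47D breast cancer cells. Cells were exposed for 3 days to degrader in an 11-point, 3-fold serial dilution reaching a final top concentration of 0.1 or 1 μM.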

DC50 [nM] | IC50 (T47D cells) [nM] | Dmax (T47D cells) [%] | also measured | SMILES
10 to 50 |  |  |  | CNC(=O)COc1cc2cc(Nc3nc(N4CCC(c5cn(CCOc6ccc7c(c6)C(=O)N(C6CCC(=O)NC6=O)C7=O)nn5)CC4)ncc3Cl)ccc2n(C)c1=O (centres unmarked) [compound 106, 2-((6-((5-chloro-2-(4-(1-(2-((2-(2,6-dioxopiperidin-3-yl)-1,3-dioxoisoindolin-5-yl)oxy)ethyl)-1H-1,2,3-triazol-4-yl)piperidin-1-yl)pyrimidin-4-yl)amino)-1-methyl-2-oxo-1,2-dihydroquinolin-3-yl)oxy)-N-methylacetamide]
 | ≥ 100 |  |  | CNC(=O)COc1cc2cc(Nc3nc(N4CCN(CC5CCN(C(=O)c6cccc(N7CCC(=O)NC7=O)c6)CC5)CC4)ncc3Cl)ccc2n(C(C)C)c1=O [compound 407, 2-{[6-({5-chloro-2-[4-({1-[3-(2,4-dioxo-1,3-diazinan-1-yl)benzoyl]piperidin-4-yl}methyl)piperazin-1-yl]pyrimidin-4-yl}amino)-2-oxo-1-(propan-2-yl)-1,2-dihydroquinolin-3-yl]oxy}-N-methylacetamide]
 | < 10 | 50 to 70 |  | CNC(=O)COc1cc2cc(Nc3nc(N4CCN(CC5CCN(c6ccc(C(=O)NC7CCC(=O)NC7=O)c(OC)c6)CC5)CC4)ncc3Cl)ccc2n(C(C)C)c1=O (centres unmarked) [compound 376, 4-[4-({4-[5-chloro-4-({3-[(methylcarbamoyl)methoxy]-2-oxo-1-(propan-2-yl)-1,2-dihydroquinolin-6-yl}amino)pyrimidin-2-yl]piperazin-1-yl}methyl)piperidin-1-yl]-N-(2,6-dioxopiperidin-3-yl)-2-methoxybenzamide]
 | 10 to 50 | < 50 |  | CNC(=O)COc1cc2cc(Nc3nc(N4CCN(C(C)(C)C5CCN(c6cccc(C(=O)NC7CCC(=O)NC7=O)[n+]6[O-])CC5)CC4)ncc3Cl)ccc2n(C)c1=O (centres unmarked) [compound 396, 2-[4-(2-{4-[5-chloro-4-({1-methyl-3-[(methylcarbamoyl)methoxy]-2-oxo-1,2-dihydroquinolin-6-yl}amino)pyrimidin-2-yl]piperazin-1-yl}propan-2-yl)piperidin-1-yl]-6-[(2,6-dioxopiperidin-3-yl)carbamoyl]pyridin-1-ium-1-olate]
 | < 10 | 50 to 70 |  | CNC(=O)COc1cc2cc(Nc3nc(N4C[C@@H](C)N(CC5CCN(c6ccc(C(=O)NC7CCC(=O)NC7=O)c(OC)c6)CC5)[C@@H](C)C4)ncc3Cl)ccc2n(C)c1=O (stereo partly drawn) [compound 346, 4-(4-{[(2R,6S)-4-[5-chloro-4-({1-methyl-3-[(methylcarbamoyl)methoxy]-2-oxo-1,2-dihydroquinolin-6-yl}amino)pyrimidin-2-yl]-2,6-dimethylpiperazin-1-yl]methyl}piperidin-1-yl)-N-(2,6-dioxopiperidin-3-yl)-2-methoxybenzamide]
10 to 50 |  |  |  | CNC(=O)COc1cc2cc(Nc3nc(N4CCC(c5cn(CCOCCOCC(=O)N[C@H](C(=O)N6C[C@H](O)C[C@H]6C(=O)N[C@@H](C)c6ccc(-c7scnc7C)cc6)C(C)(C)C)nn5)CC4)ncc3Cl)ccc2n(C)c1=O [compound 115, (2S,4R)-1-((S)-2-(2-(2-(2-(4-(1-(5-chloro-4-((1-methyl-3-(2-(methylamino)-2-oxoethoxy)-2-oxo-1,2-dihydroquinolin-6-yl)amino)pyrimidin-2-yl)piperidin-4-yl)-1H-1,2,3-triazol-1-yl)ethoxy)ethoxy)acetamido)-3,3-dimethylbutanoyl)-4-hydroxy-N-((S)-1-(4-(4-methylthiazol-5-yl)phenyl)ethyl)pyrrolidine-2-carboxamide]
 |  |  | IC50: 10 to 50 nM; Dmax (T47D): ≥ 70% | CNC(=O)COc1cc2cc(Nc3nc(N4CCN(C(C)(C)C5CCN(c6cccc(C(=O)NC7CCC(=O)NC7=O)c6F)CC5)CC4)ncc3Cl)ccc2n(C)c1=O (centres unmarked) [compound 291, 3-[4-(2-{4-[5-chloro-4-({1-methyl-3-[(methylcarbamoyl)methoxy]-2-oxo-1,2-dihydroquinolin-6-yl}amino)pyrimidin-2-yl]piperazin-1-yl}propan-2-yl)piperidin-1-yl]-N-(2,6-dioxopiperidin-3-yl)-2-fluorobenzamide]
 | < 10 | ≥ 70 |  | CNC(=O)COc1cc2cc(Nc3nc(N4CCN(CC5(F)CCN(c6cccc7c6C(=O)N(C6CCC(=O)NC6=O)C7=O)CC5)CC4)ncc3Cl)ccc2n(C)c1=O (centres unmarked) [compound 341, 2-{[6-({5-chloro-2-[4-({1-[2-(2,6-dioxopiperidin-3-yl)-1,3-dioxo-2,3-dihydro-1H-isoindol-4-yl]-4-fluoropiperidin-4-yl}methyl)piperazin-1-yl]pyrimidin-4-yl}amino)-1-methyl-2-oxo-1,2-dihydroquinolin-3-yl]oxy}-N-methylacetamide]
 | < 10 | 50 to 70 |  | CCn1c(=O)c(OCC(=O)NC)cc2cc(Nc3nc(N4CCC(COC5CCN(c6cccc7c6C(=O)N(C6CCC(=O)NC6=O)C7=O)CC5)CC4)ncc3Cl)ccc21 (centres unmarked) [compound 332, 2-({6-[(5-chloro-2-{4-[({1-[2-(2,6-dioxopiperidin-3-yl)-1,3-dioxo-2,3-dihydro-1H-isoindol-4-yl]piperidin-4-yl}oxy)methyl]piperidin-1-yl}pyrimidin-4-yl)amino]-1-ethyl-2-oxo-1,2-dihydroquinolin-3-yl}oxy)-N-methylacetamide]
> 100 |  |  |  | O=C1CCC(N2C(=O)c3ccc(N4CCN(CC5CCN(c6cc(Nc7ccc8c(c7)CCC(=O)N8)c(Cl)cc6[N+](=O)[O-])CC5)CC4)cc3C2=O)C(=O)N1 (centres unmarked) [compound 92, 5-(4-((1-(4-chloro-2-nitro-5-((2-oxo-1,2,3,4-tetrahydroquinolin-6-yl)amino)phenyl)piperidin-4-yl)methyl)piperazin-1-yl)-2-(2,6-dioxopiperidin-3-yl)isoindoline-1,3-dione]
10 to 50 |  |  |  | CNC(=O)COc1cc2cc(Nc3nc(N4CCC(OCCOCCOc5ccc6c(c5)CN(C5CCC(=O)NC5=O)C6=O)CC4)ncc3Cl)ccc2n(C)c1=O (centres unmarked) [compound 61, 2-((6-((5-chloro-2-(4-(2-(2-((2-(2,6-dioxopiperidin-3-yl)-1-oxoisoindolin-5-yl)oxy)ethoxy)ethoxy)piperidin-1-yl)pyrimidin-4-yl)amino)-1-methyl-2-oxo-1,2-dihydroquinolin-3-yl)oxy)-N-methylacetamide]
 | 1000 |  |  | CNC(=O)CCN1Cc2cc(Nc3nc(N4CCN(CC5CCN(c6ccc7c(c6)C(=O)N(C6CCC(=O)NC6=O)C7=O)CC5)CC4)ncc3Cl)ccc2CC1=O (centres unmarked) [compound 395, 3-[7-({5-chloro-2-[4-({1-[2-(2,6-dioxopiperidin-3-yl)-1,3-dioxo-2,3-dihydro-1H-isoindol-5-yl]piperidin-4-yl}methyl)piperazin-1-yl]pyrimidin-4-yl}amino)-3-oxo-1,2,3,4-tetrahydroisoquinolin-2-yl]-N-methylpropanamide]
 |  |  | IC50: < 10 nM; Dmax (T47D): < 50% | CNC(=O)COc1cc2cc(Nc3nc(N4CCN(CC5CCN(c6ccc7c(c6)C(=O)N(C6CCC(=O)NC6=O)C7=O)CC5)CC4)c(C#N)cc3Cl)ccc2n(C)c1=O (centres unmarked) [compound 297, 2-{[6-({3-chloro-5-cyano-6-[4-({1-[2-(2,6-dioxopiperidin-3-yl)-1,3-dioxo-2,3-dihydro-1H-isoindol-5-yl]piperidin-4-yl}methyl)piperazin-1-yl]pyridin-2-yl}amino)-1-methyl-2-oxo-1,2-dihydroquinolin-3-yl]oxy}-N-methylacetamide]

Reference: US12310975B2, “Modulators of BCL6 proteolysis and associated methods of use” (Arvinas Operations, Inc., priority 2019, dated 2025)
